In US10874745B2, “Antimicrobial peptides and methods of treating gram-negative pathogens: polar and non-polar face analogs” (priority 2017, dated 2020):
≈ marks a conversion by molar mass, not a printed value. Where “and” joins values, the source holds several entries; their conditions need not be identical. Equal entries are not always repeated. Where two headings read alike, the source gives them in different places. Non-standard residues stand in square brackets, D forms with d. Residues, ends and D or L forms follow the SMILES beside them. dDab = NCC[C@@H](N)C(=O)O

What was measured:
[1] = Hemolytic activity; assay type: cell-based, human; conditions: 1% human erythrocytes (red blood cells), pH 7.4
Procedure: Hemoglobin release was determined spectrophotometrically at 570 nm. […] […] […] With the peptides used in this study the inventors used the HC30/MIC ratio value to calculate the therapeutic index.

[2] = test system: A. baumannii strains resistant to Polymyxin B and Colistin; assay type: cell-based; conditions: for MICGM: geometric mean, 7 A. baumannii strains resistant to polymyxin B and colistin
Source text: Gram-Negative Bacterial Strains used in this Study: All the A. baumannii strains used in this study were 1) obtained from the collection of Dr. Anthony A. Campagnari at the University of Buffalo and originally isolated from different patients and organs/tissues (strain 649, blood; strain 689, groin; strain 759, gluteus; strain 884, axilla; strain 985, pleural fluid); 2) were purchased from the American Type Culture Collection (ATCC, Manassas, Va., USA) (strain ATCC 17978, fatal meningitis; and strain ATCC 19606, urine); 3) obtained from MERCK (M89941, M89949, M89951, M89952, M89953, M89955 and M89963). These seven A. baumannii strains were resistant to polymyxin B and polymyxin E (Colistin).
Measurement of Antimicrobial Activity (MIC): The minimal inhibitory concentration (MIC) is defined as the lowest peptide concentration that inhibited bacterial growth. MICs were measured by a standard microtiter dilution method in Mueller Hinton (MH) medium. Briefly, cells were grown overnight at 37° C. in MH broth and were diluted in the same medium. […] The plates were incubated at 37° C. for 24 h, and the MICs were determined.

[3] = 50% hemolysis of human red blood cells after 18 hours at 37° C., read-out: HC50

Compound | HC50 at 18 h [1, 3] | MICGM [2] [µM] | MIC ([2]; strain M89941) [µM] | MIC ([2]; strain M89949) [µM] | MIC ([2]; strain M89951) [µM] | MIC ([2]; strain M89952) [µM] | MIC ([2]; strain M89953) [µM] | MIC ([2]; strain M89955) [µM] | MIC ([2]; strain M89963) [µM] | other results
CC(=O)N[C@H](CCCCN)C(=O)N[C@H](CC(C)C)C(=O)N[C@H](CCCNC(=N)N)C(=O)N[C@H](CO)C(=O)N[C@H](CC(C)C)C(=O)N[C@H](CC(C)C)C(=O)N[C@H](CCCNC(=N)N)C(=O)N[C@@H](C(=O)N[C@H](CC(C)C)C(=O)N[C@H](CO)C(=O)N[C@H](CCCNC(=N)N)C(=O)N[C@H](C)C(=O)N[C@H](CCCCN)C(=O)N[C@H](C)C(=O)N[C@H](C)C(=O)N[C@H](CCCCN)C(=O)N[C@H](CC(C)C)C(=O)N[C@H](CCCNC(=N)N)C(=O)N[C@@H](C(=O)N[C@H](CC(C)C)C(=O)N[C@H](CC(C)C)C(=O)N[C@H](CCCNC(=N)N)C(=O)N[C@H](C)C(=O)N[C@H](CC(C)C)C(=O)N[C@H](CO)C(=O)N[C@H](CCCNC(=N)N)C(N)=O)[C@H](C)O)[C@H](C)O [Peptide D87, Ac-KL(Arg)SLL(Arg)TLS(Arg)AKAAKL(Arg)TLL(Arg)ALs(Arg)-amide] (Ac-[dK][dL][dR][dS][dL][dL][dR][dT][dL][dS][dR][dA][dK][dA][dA][dK][dL][dR][dT][dL][dL][dR][dA][dL][dS][dR]-NH2) | 12 µg/mL |  |  |  |  |  |  |  |  | 
CC(=O)N[C@H](CCCCN)C(=O)N[C@H](CC(C)C)C(=O)N[C@H](CCN)C(=O)N[C@H](CO)C(=O)N[C@H](CC(C)C)C(=O)N[C@H](CC(C)C)C(=O)N[C@H](CCN)C(=O)N[C@@H](C(=O)N[C@H](CC(C)C)C(=O)N[C@H](CO)C(=O)N[C@H](C)C(=O)N[C@H](C)C(=O)N[C@H](CCCCN)C(=O)N[C@H](CCN)C(=O)N[C@H](CCN)C(=O)N[C@H](CCCCN)C(=O)N[C@H](CC(C)C)C(=O)N[C@H](C)C(=O)N[C@@H](C(=O)N[C@H](CC(C)C)C(=O)N[C@H](CC(C)C)C(=O)N[C@H](CCN)C(=O)N[C@H](C)C(=O)N[C@H](CC(C)C)C(=O)N[C@H](CO)C(=O)N[C@H](CCN)C(N)=O)[C@H](C)O)[C@H](C)O [Peptide D89, Ac-KL(Dbu)SLL(Dbu)TLSAAK(Dbu)(Dbu)KLATLL(Dbu)ALS(Dbu)-amide] (Ac-[dK][dL][dDab][dS][dL][dL][dDab][dT][dL][dS][dA][dA][dK][dDab][dDab][dK][dL][dA][dT][dL][dL][dDab][dA][dL][dS][dDab]-NH2) |  |  |  |  |  |  |  |  |  | MIC ([2]; strain MB9941 (Table 9C)): 0.7 µM (≈ 1.89 µg/mL); MIC ([2]; strain MB9949 (Table 9C)): 0.7 µM (≈ 1.89 µg/mL); MIC ([2]; strain MB9951 (Table 9C)): 0.7 µM (≈ 1.89 µg/mL); MIC ([2]; strain MB9952 (Table 9C)): 0.7 µM (≈ 1.89 µg/mL); MIC ([2]; strain MB9953 (Table 9C)): 0.7 µM (≈ 1.89 µg/mL); MIC ([2]; strain MB9955 (Table 9C)): 0.7 µM (≈ 1.89 µg/mL); MIC ([2]; strain MB9963 (Table 9C)): 0.7 µM (≈ 1.89 µg/mL); HC50 at 18 h ([1]; human): > 3000 µg/mL and > 1.11 mM
CC(=O)N[C@H](CCCCN)C(=O)N[C@H](CC(C)C)C(=O)N[C@H](CCCCN)C(=O)N[C@H](CO)C(=O)N[C@H](CC(C)C)C(=O)N[C@H](CC(C)C)C(=O)N[C@H](CCCCN)C(=O)N[C@@H](C(=O)N[C@H](CC(C)C)C(=O)N[C@H](CO)C(=O)N[C@H](CCCCN)C(=O)N[C@H](C)C(=O)N[C@H](CCCCN)C(=O)N[C@H](C)C(=O)N[C@H](C)C(=O)N[C@H](CCCCN)C(=O)N[C@H](CC(C)C)C(=O)N[C@H](CCCCN)C(=O)N[C@@H](C(=O)N[C@H](CC(C)C)C(=O)N[C@H](CC(C)C)C(=O)N[C@H](CCCCN)C(=O)N[C@H](C)C(=O)N[C@H](CC(C)C)C(=O)N[C@H](CO)C(=O)N[C@H](CO)C(N)=O)[C@H](C)O)[C@H](C)O [Peptide D101, Ac-KL(Lys)SLL(Lys)TLS(Lys)AKAAKL(Lys)TLL(Lys)ALSS-amide] | 279 µg/mL and > 104 µM |  |  |  |  |  |  |  |  | 
CC(=O)N[C@H](CCCCN)C(=O)N[C@H](CC(C)C)C(=O)N[C@H](CCCCN)C(=O)N[C@H](CO)C(=O)N[C@H](CC(C)C)C(=O)N[C@H](CC(C)C)C(=O)N[C@H](CCCCN)C(=O)N[C@@H](C(=O)N[C@H](CC(C)C)C(=O)N[C@H](CO)C(=O)N[C@H](C)C(=O)N[C@H](C)C(=O)N[C@H](CCCCN)C(=O)N[C@H](CCCCN)C(=O)N[C@H](CCCCN)C(=O)N[C@H](CCCCN)C(=O)N[C@H](CC(C)C)C(=O)N[C@H](C)C(=O)N[C@@H](C(=O)N[C@H](CC(C)C)C(=O)N[C@H](CC(C)C)C(=O)N[C@H](CCCCN)C(=O)N[C@H](C)C(=O)N[C@H](CC(C)C)C(=O)N[C@H](CO)C(=O)N[C@H](CO)C(N)=O)[C@H](C)O)[C@H](C)O [Peptide D103, Ac-KL(Lys)SLL(Lys)TLSAAK(Lys)(Lys)KLATLL(Lys)ALSS-amide] (Ac-[dK][dL][dK][dS][dL][dL][dK][dT][dL][dS][dA][dA][dK][dK][dK][dK][dL][dA][dT][dL][dL][dK][dA][dL][dS][dS]-NH2) | 381 µg/mL and 135 µM |  |  |  |  |  |  |  |  | 
Colistin [reference compound] |  | >28 | >28 | >28 | >28 | >28 | >28 | >28 | >28 | 
Polymyxin B [reference compound] |  | >25 | >25 | >25 | >25 | >25 | >25 | >25 | >25 | 
